The subject of data set [1] is Hep 3B2. Briefly: cells. To be noted: Homo sapiens, Hep3B, 48 h.
A further data set relates to HepG2. Briefly: cells. The settings on record: Homo sapiens, HepG2, 48 h.
A short description of data set [2]: Cytotoxicity against human WI-38 cells assessed as reduction in cell growth measured after 48 hrs by MTT assay. The format is toxicity, cell-based. Background: Tetrazolium assays rely on reduction of a dye to a coloured formazan, in cell work by metabolically active cells.
A short description of data set [3]: Cytotoxicity against human HS27 cells assessed as reduction in cell growth measured after 48 hrs by MTT assay. The format is toxicity, cell-based.
The target of data set [4] is T1, Macrophage colony-stimulating factor 1 receptor (Homo sapiens, UniProt P07333). Briefly: Inhibition of FMS (unknown origin) using myelin basic protein as substrate measured after 40 mins in presence of [gamma-33P]-ATP by scintillation counting method.
A further data set concerns SK-MEL-28. Briefly: Antiproliferative activity against human SK-MEL-28 cells assessed as cell growth inhibition. The format is functional.
The test system of another data set is MDA-MB-231. Briefly: Antiproliferative activity against human MDA-MB-231 cells assessed as cell growth inhibition. The format is functional.
For a further data set, the system named is RXF 393. Briefly: Antiproliferative activity against human RXF 393 cells assessed as cell growth inhibition. It is filed as functional.
For the next data set, the system named is OVCAR-4. As to the kind of experiment: Antiproliferative activity against human OVCAR-4 cells assessed as cell growth inhibition. It is filed as functional.
The test system of another data set is SNB-75. Briefly: Antiproliferative activity against human SNB-75 cells assessed as cell growth inhibition. It is filed as functional.
A further data set has as its system 786-0. As to the kind of experiment: Antiproliferative activity against human 786-0 cells assessed as cell growth inhibition. It is filed as functional.
In another data set the test system is HT-29. As to the kind of experiment: Antiproliferative activity against human HT-29 cells assessed as cell growth inhibition. It is filed as functional.
In a further data set the test system is CAKI-1. Briefly: Antiproliferative activity against human CAKI-1 cells assessed as cell growth inhibition. The format is functional.
The test system of the next data set is Malme-3M. As to the kind of experiment: Antiproliferative activity against human Malme-3M cells assessed as cell growth inhibition. It is filed as functional.
The next data set has as its system M14. As to the kind of experiment: Antiproliferative activity against human M14 cells assessed as cell growth inhibition. The format is functional.
Another data set concerns K562. As to the kind of experiment: Antiproliferative activity against human K562 cells assessed as cell growth inhibition. It is filed as functional.
The test system of a further data set is CCRF-CEM. As to the kind of experiment: Antiproliferative activity against human CCRF-CEM cells assessed as cell growth inhibition. It is filed as functional.
The test system of another data set is DU-145. Briefly: Antiproliferative activity against human DU-145 cells assessed as cell growth inhibition. It is filed as functional.
The subject of a further data set is SN12C. As to the kind of experiment: Antiproliferative activity against human SN12C cells assessed as cell growth inhibition. It is filed as functional.
The test system of the next data set is MOLT-4. Briefly: Antiproliferative activity against human MOLT-4 cells assessed as cell growth inhibition. It is filed as functional.
The test system of data set [5] is Hep 3B2. Briefly: Antiproliferative activity against human Hep3B cells assessed as cell growth inhibition at 10 uM measured after 48 hrs by MTT assay relative to control. The settings on record: read-out: GI. It is filed as functional.
In the next data set the test system is MCF7. Briefly: Antiproliferative activity against human MCF7 cells assessed as cell growth inhibition. The format is functional.
A further data set has as its system SW-620. Briefly: Antiproliferative activity against human SW-620 cells assessed as cell growth inhibition. The format is functional.
The subject of the next data set is A549. Briefly: Antiproliferative activity against human A549 cells assessed as cell growth inhibition. The format is functional.
Another data set concerns HCT-15. As to the kind of experiment: Antiproliferative activity against human HCT-15 cells assessed as cell growth inhibition. The format is functional.
For another data set, the system named is OVCAR-3. As to the kind of experiment: Antiproliferative activity against human OVCAR-3 cells assessed as cell growth inhibition. It is filed as functional.
A further data set has as its system SR. As to the kind of experiment: Antiproliferative activity against human SR cells assessed as cell growth inhibition. The format is functional.
A further data set deals with PC-3. Briefly: Antiproliferative activity against human PC-3 cells assessed as cell growth inhibition. It is filed as functional.
For the next data set, the system named is NCI-H460. Briefly: Antiproliferative activity against human NCI-H460 cells assessed as cell growth inhibition. It is filed as functional.
The next data set concerns COLO 205. Briefly: Antiproliferative activity against human COLO 205 cells assessed as cell growth inhibition. The format is functional.
The target in data set [6] is T1, Macrophage colony-stimulating factor 1 receptor. As to the kind of experiment: Inhibition of NanoLuc-fused FMS (unknown origin) transfected in HEK293 cells by NanoBRET assay. The format is cell-based. (BRET reads energy transfer from a luciferase to a nearby fluorophore.)
For data set [7], the target named is Voltage-gated inwardly rectifying potassium channel KCNH2 (Homo sapiens, UniProt Q12809). Briefly: Inhibition of fluorescence tracer red binding to human ERG measured after 3 hrs by fluorescence polarization assay. For orientation: In fluorescence polarisation assays a small probe gives low polarisation when free and higher when bound to something large.
In the next data set the test system is SF-295. As to the kind of experiment: Antiproliferative activity against human SF-295 cells assessed as cell growth inhibition. The format is functional.
A further data set concerns HCT-116. As to the kind of experiment: Antiproliferative activity against human HCT-116 cells assessed as cell growth inhibition. It is filed as functional.
The subject of a further data set is MDA-MB-435. As to the kind of experiment: Antiproliferative activity against human MDA-MB-435 cells assessed as cell growth inhibition. The format is functional.
A further data set has as its system BMDM. As to the kind of experiment: Inhibition of CSF-1-induced C57BL6 mouse BMDM cell growth preincubated for 1 hr followed by CSF-1 addition and measured after 5 hrs by alamar blue assay.
Another data set deals with LOX IMVI. Briefly: Antiproliferative activity against human LOX IMVI cells assessed as cell growth inhibition. It is filed as functional.
Another data set relates to SF-539. Briefly: Antiproliferative activity against human SF-539 cells assessed as cell growth inhibition. It is filed as functional.
The next data set concerns MDA-MB-468. Briefly: Antiproliferative activity against human MDA-MB-468 cells assessed as cell growth inhibition. The format is functional.
In another data set the test system is Hs-578T. Briefly: Antiproliferative activity against human Hs-578T cells assessed as cell growth inhibition. The format is functional.

Usually GI50 stands for the concentration giving 50% growth inhibition. As a reminder, the TGI is the concentration at which net growth stops.

T1 sequence (P07333 whole entry): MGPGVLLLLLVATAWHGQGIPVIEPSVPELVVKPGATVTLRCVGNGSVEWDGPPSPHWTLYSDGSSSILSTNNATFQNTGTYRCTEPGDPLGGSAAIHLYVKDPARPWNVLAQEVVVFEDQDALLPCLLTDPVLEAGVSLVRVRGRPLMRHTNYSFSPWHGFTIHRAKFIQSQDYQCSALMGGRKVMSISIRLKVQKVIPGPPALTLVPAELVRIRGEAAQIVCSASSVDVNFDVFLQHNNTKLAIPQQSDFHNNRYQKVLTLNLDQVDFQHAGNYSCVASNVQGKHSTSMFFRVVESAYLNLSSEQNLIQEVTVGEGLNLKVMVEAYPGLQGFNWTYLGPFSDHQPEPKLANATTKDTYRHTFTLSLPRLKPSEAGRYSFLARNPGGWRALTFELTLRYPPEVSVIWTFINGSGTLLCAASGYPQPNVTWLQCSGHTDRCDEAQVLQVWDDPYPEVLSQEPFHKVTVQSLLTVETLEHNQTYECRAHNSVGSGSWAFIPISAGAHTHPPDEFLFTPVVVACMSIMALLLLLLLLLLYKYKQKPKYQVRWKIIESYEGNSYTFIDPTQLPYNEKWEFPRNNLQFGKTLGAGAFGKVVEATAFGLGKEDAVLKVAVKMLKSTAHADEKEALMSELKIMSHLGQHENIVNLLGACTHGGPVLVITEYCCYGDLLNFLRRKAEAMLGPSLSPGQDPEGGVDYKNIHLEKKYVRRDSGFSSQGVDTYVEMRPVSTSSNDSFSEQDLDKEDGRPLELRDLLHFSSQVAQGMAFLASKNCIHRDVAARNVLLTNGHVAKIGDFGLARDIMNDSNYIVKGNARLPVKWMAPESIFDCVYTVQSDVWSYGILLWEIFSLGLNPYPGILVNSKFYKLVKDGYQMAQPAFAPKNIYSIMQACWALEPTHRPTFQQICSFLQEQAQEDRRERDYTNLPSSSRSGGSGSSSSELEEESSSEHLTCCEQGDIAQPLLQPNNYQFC
Chain of Voltage-gated inwardly rectifying potassium channel KCNH2 (Q12809 whole entry): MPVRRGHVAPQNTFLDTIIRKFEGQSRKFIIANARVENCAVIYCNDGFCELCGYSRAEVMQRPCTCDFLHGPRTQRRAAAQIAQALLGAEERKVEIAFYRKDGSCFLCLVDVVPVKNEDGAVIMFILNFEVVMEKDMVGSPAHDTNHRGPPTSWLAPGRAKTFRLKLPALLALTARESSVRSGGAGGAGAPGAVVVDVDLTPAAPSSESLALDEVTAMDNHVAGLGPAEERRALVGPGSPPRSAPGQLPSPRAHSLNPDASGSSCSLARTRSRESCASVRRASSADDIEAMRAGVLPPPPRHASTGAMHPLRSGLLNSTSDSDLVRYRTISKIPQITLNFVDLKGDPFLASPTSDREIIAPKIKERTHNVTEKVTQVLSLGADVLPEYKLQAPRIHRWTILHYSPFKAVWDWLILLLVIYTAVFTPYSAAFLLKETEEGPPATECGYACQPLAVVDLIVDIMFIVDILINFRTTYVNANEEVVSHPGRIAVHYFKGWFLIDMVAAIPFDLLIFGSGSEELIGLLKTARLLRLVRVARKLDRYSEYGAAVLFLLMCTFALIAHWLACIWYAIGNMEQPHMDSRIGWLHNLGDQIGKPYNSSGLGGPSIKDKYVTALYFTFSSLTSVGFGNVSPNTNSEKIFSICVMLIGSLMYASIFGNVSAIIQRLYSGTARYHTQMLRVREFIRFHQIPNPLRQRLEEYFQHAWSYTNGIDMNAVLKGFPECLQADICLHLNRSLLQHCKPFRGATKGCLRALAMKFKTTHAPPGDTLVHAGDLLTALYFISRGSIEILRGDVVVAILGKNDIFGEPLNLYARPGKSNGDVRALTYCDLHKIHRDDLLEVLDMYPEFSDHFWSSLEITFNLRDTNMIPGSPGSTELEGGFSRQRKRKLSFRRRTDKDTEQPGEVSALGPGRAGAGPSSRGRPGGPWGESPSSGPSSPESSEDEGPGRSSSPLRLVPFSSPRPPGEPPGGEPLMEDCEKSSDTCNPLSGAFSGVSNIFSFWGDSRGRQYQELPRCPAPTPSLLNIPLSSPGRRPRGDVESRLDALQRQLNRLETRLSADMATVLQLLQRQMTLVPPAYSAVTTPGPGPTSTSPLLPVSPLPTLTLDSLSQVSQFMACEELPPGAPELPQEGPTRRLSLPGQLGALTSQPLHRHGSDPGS
Description for HepG2: Antiproliferative activity against human HepG2 cells assessed as cell growth inhibition measured after 48 hrs by MTT assay

Regarding `C=CC(=O)N1CCN(c2ccc(NC(=O)Nc3ccc(-c4cc(C(=O)NC(C)C)c5ncccc5n4)cc3)cc2C(F)(F)F)CC1`, the IC50 with Hep 3B2 [1] amounted to 810 nM; with HepG2, 870 nM; in data set [4] (read-out: IC50) it was 788 nM. For the same compound, the IC50 at 48 h in [2] is 15800 nM; in [3], 8100 nM.

Consider `CNC(=O)c1cc(-c2ccc(NC(=O)Nc3ccc(N4CCOCC4)c(C(F)(F)F)c3)cc2)nc2cccnc12`, for which the figures for the IC50 (in the data set on Hep 3B2 [1]; with HepG2; in data set [4] (read-out: IC50)) were 1890 nM, 1270 nM and 134 nM, respectively. The IC50 at 48 h in data set [2] was above 20000 nM; in data set [3], 11600 nM.

Regarding `CC(C)NC(=O)c1cc(-c2ccc(NC(=O)Nc3ccc(N4CCNCC4)c(C(F)(F)F)c3)cc2)nc2cccnc12`, the IC50 in the data set on Hep 3B2 [1] stood at 850 nM; with HepG2, 920 nM; in data set [4] (read-out: IC50) it was 852 nM. Also, the results for the IC50 at 48 h in [2] and in data set [3] were 18600 nM and 9100 nM, respectively.

For `CNC(=O)c1cc(-c2ccc(NC(=O)Nc3ccc(N4CCNCC4)c(C(F)(F)F)c3)cc2)nc2cccnc12`, in [4] (read-out: IC50), the IC50 came to 743 nM.

Consider `CC(C)NC(=O)c1cc(-c2ccc(NC(=O)Nc3ccc(N4CCOCC4)c(C(F)(F)F)c3)cc2)nc2cccnc12`, for which the IC50 in [4] (read-out: IC50) was found to be 901 nM.

For the compound `CNC(=O)c1cc(Oc2ccc(NC(=O)Nc3ccc(Cl)c(C(F)(F)F)c3)cc2)ccn1` [SORAFENIB], the GI50 in the data set with SK-MEL-28 was determined as 2510 nM; in the data set with MDA-MB-231, 1260 nM; in the data set with RXF 393 it was 3160 nM; in the data set on OVCAR-4, 3160 nM; in the data set with SNB-75, 3160 nM; in the data set with 786-0, 3160 nM. Besides, the GI50 in the data set on HT-29 was 2000 nM; with CAKI-1, 3160 nM; with Malme-3M it was 2000 nM; in the data set with M14 it was 2000 nM; with K562 it was 3160 nM; with CCRF-CEM it was 2000 nM. For the same compound, the GI50 in the data set with DU-145 was 3160 nM; in the data set on SN12C, 2510 nM; in the data set with MOLT-4, 3160 nM; with MCF7 it was 2510 nM; in the data set with SW-620, 2510 nM; with A549, 3160 nM. In addition, the GI50 with HCT-15 was 2510 nM; in the data set with OVCAR-3, 3160 nM; in the data set on SR it was 3160 nM; with PC-3 it was 2000 nM; with NCI-H460, 2510 nM; with COLO 205, 2000 nM. The TGI in the data set with MOLT-4 came to 100000 nM; in the data set on MCF7, 7940 nM. Moreover, the inhibition of growth at 10 µM in the data set with Hep 3B2 [5] came to 75%. In data set [3], the IC50 at 48 h came out at 8300 nM.

With `CNC(=O)c1cc(-c2ccc(NC(=O)Nc3ccc(N4CCN(C)CC4)c(C(F)(F)F)c3)cc2)nc2cccnc12`, the IC50 amounted to 563 nM in [6] and 95900 nM in data set [7].

Consider `CCN1CCN(c2ccc(NC(=O)Nc3ccc(-c4cc(C(=O)NC)c5ncccc5n4)cc3)cc2C(F)(F)F)CC1`, for which the GI50 in the data set on SK-MEL-28 is 320 nM; with RXF 393, 500 nM; in the data set with SNB-75 it was 840 nM; in the data set on 786-0, 300 nM; with HT-29, 530 nM; in the data set on Malme-3M, 290 nM. Further, the GI50 stood at 400 nM with M14; 660 nM in the data set on K562; 460 nM with CCRF-CEM; 690 nM with MOLT-4; 290 nM in the data set with MCF7; 270 nM with MDA-MB-435. The GI50 in the data set with LOX IMVI was determined as 670 nM; in the data set on SF-539 it was 2300 nM; in the data set on SW-620 it was 310 nM; in the data set with A549 it was 470 nM; in the data set with HCT-15 it was 330 nM; in the data set on SR, 670 nM. The GI50 in the data set with NCI-H460 amounted to 660 nM. For the same compound, the TGI in the data set on SK-MEL-28 stood at 580 nM; with MDA-MB-231 it was 5250 nM; with RXF 393, 1660 nM; in the data set on OVCAR-4, 5630 nM; in the data set on SNB-75, 3820 nM; in the data set on 786-0, 580 nM. For the same compound, the TGI in the data set on SF-295 worked out at 4470 nM; with HT-29, 2110 nM; with CAKI-1, 5600 nM; with Malme-3M it was 530 nM; in the data set on M14, 1050 nM; with K562 it was 18000 nM. Moreover, the TGI with HCT-116 was determined as 4830 nM; in the data set on CCRF-CEM it was 1270 nM; in the data set on DU-145, 4900 nM; with SN12C it was 5300 nM; with MOLT-4, 18000 nM; in the data set with MCF7 it was 610 nM. The TGI is 560 nM in the data set on MDA-MB-435; 2660 nM with LOX IMVI; 4570 nM with SF-539; 620 nM with SW-620; 5030 nM in the data set on MDA-MB-468; 13000 nM in the data set with A549. For the same compound, the TGI in the data set with Hs-578T came out at 6880 nM; with HCT-15, 700 nM; in the data set with OVCAR-3, 5060 nM; in the data set on SR, 18000 nM; with PC-3 it was 6030 nM; in the data set with NCI-H460, 2930 nM. Also, the TGI in the data set with COLO 205 stood at 14200 nM. Also, the IC50 in data set [6] amounted to 1350 nM; with BMDM, 167 nM; in data set [7] it was 83400 nM. Besides, the values for the IC50 at 48 h in data set [2] and in [3] were 16700 nM and 8800 nM, respectively.

Consider `CC(C)NC(=O)c1cc(-c2ccc(NC(=O)Nc3ccc(F)c(C(F)(F)F)c3)cc2)nc2cccnc12`, for which the inhibition of growth at 10 µM in the data set with Hep 3B2 [5] is 84.8%.

As for `C=CC(=O)N1CCN(c2ccc(NC(=O)Nc3ccc(-c4cc(C(=O)NC)c5ncccc5n4)cc3)cc2C(F)(F)F)CC1`, the IC50 in [4] (read-out: IC50) was found to be 196 nM.

As for `CC(C)NC(=O)c1cc(-c2ccc(NC(=O)Nc3ccc(N4CCN(C)CC4)c(C(F)(F)F)c3)cc2)nc2cccnc12`, the IC50 is 1760 nM in the data set on Hep 3B2 [1], 800 nM in the data set with HepG2, 797 nM in [4] (read-out: IC50) and 813 nM in [4] (read-out: pIC50 (converted)). Moreover, the IC50 at 48 h in data set [2] amounted to 18300 nM; in data set [3] it was 8000 nM.
